# Laboratory results taken from US20250099434A1, “METHODS OF TREATING AMYLOID RELATED BRAIN DISORDERS USING NOVEL COMPOUNDS AND ANTIBODIES” (T3D Therapeutics, Inc., priority 2022, published 2025).
# How the values were obtained:
# human PPARγ = molecular target: T1, human PPARγ (Homo sapiens, UniProt P37231); assay: Human PPAR activation, transient transfection in CV-1 cells (gamma subtype); assay type: cell-based
# T1 construct: expressed in transfected cells; host or cells: CV-1 cells
# T1 sequence (P37231 1-505): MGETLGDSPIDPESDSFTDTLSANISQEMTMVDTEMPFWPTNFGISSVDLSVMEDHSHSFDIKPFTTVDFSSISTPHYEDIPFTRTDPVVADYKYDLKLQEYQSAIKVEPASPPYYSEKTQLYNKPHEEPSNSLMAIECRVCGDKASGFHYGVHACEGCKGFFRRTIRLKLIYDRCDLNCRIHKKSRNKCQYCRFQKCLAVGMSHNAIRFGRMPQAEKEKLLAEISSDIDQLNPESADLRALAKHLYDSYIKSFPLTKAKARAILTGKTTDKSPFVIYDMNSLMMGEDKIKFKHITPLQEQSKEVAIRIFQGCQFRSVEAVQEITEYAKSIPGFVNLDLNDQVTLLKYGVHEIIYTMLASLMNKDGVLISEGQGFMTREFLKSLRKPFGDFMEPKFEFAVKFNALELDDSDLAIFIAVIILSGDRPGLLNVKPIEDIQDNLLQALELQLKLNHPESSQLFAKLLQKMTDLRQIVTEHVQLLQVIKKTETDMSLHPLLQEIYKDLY
# From the text: PPAR receptor agonist activity may be determined by conventional screening methods known to the skilled in the art. For example, methods described in U.S. Patent Application Publication No. 2007/0054907, 2008/0262047 and U.S. Pat. No. 7,314,879, which are incorporated by reference in their entireties.
# The table summarize the results of studies performed in transfected CV-1 cells with three different lots of Compound of Example 11. […].
# [1] = tested on: patients with mild-to-moderate Alzheimer's disease (AD); assay: BOLD fMRI (task-free fMRI) clinical study, baseline vs end of treatment; assay type: in vivo, human
# Procedure: The majority were non-Hispanic and of white origin.
# T3D Therapeutics completed an exploratory analysis of the Phase 2A non-placebo-controlled feasibility study to assess the therapeutic effects of T3D959 in patients with mild-to-moderate Alzheimer's disease (AD) via task-free functional magnetic resonance imaging (tf-fMRI). A total of 34 subjects participated and were split into 4 groups that took different amounts of T3D959 over the course of the study: 3 mg, 10 mg, 30 mg, and 90 mg. A baseline tf-fMRI scan was obtained prior to treatment and another two weeks after. Sixteen tf-fMRI metrics were calculated at each time point and summarized for each patient group to assess the therapeutic effect of T3D959.
# The T3D clinical trial investigated the following metrics: • 1. Goodness of Fit of the subject's default mode network regions compared to those of an elderly control group. • 2. The correlation strength between the hippocampus and precuneus. • 3. The global efficiency calculated from 11 pre-defined default mode network regions. • 4. The global efficiency calculated from 90 pre-defined cerebral regions based on the automated anatomical labeling atlas. • 5. The amplitude of low frequency fluctuations (ALFF) and […] of low frequency fluctuations (fALFF) from the right posterior cingulate cortex (PCC) and precuneus (PreC) in the low frequency oscillations (LFO) range (0.01-0.08 Hz). • 6. The ALFF and fALFF from the left PCC and PreC in the LFO range. • 7. The regional homogeneity (ReHo) in the right PCC and PreC. • 8. The ReHo in the left PCC and PreC. • 9. […] The ALFF and fALFF from the left IPL in the LFO range. • 11. The ReHo in the right IPL • 12. The ReHo in the left IPL.
compound,measurement,setting,value
"CCc1oc(-c2ccc(OC)cc2)nc1CCOc1ccc2c(c1)CC[C@H]2CC(=O)[O-].[Na+] [Example 11, Sodium (S)-2-(5-(2-(5-ethyl-2-(4-methoxyphenyl)oxazol-4-yl)ethoxy)-2,3-dihydro-1H-inden-1-yl)acetate]",Peak effect PPARγ,human PPARγ,29.49
same,"ALFF-IIPL, Change from Baseline EOT, Mean",[1]; 3 mg,−0.0635
same,"ALFF-IIPL, Change from Baseline EOT, Median",[1]; 3 mg,−0.0393
same,"ALFF-rIPL, Change from Baseline EOT, Mean",[1]; 3 mg,−0.0493
same,"ALFF-rIPL, Change from Baseline EOT, Median",[1]; 3 mg,−0.0587
same,"ReHo-IIPL, Change from Baseline EOT, Mean",[1]; 3 mg,−0.0694
same,"ReHo-IIPL, Change from Baseline EOT, Median",[1]; 3 mg,−0.0822
same,"ReHo-IPPC-PreC, Change from Baseline EOT, Mean",[1]; 3 mg,−0.0665
same,"ReHo-IPPC-PreC, Change from Baseline EOT, Median",[1]; 3 mg,−0.0428
same,"ReHo-rIPL, Change from Baseline EOT, Mean",[1]; 3 mg,−0.0694
same,"ReHo-rIPL, Change from Baseline EOT, Median",[1]; 3 mg,−0.0822
same,"ReHo-rPPC-Prec, Change from Baseline EOT, Mean",[1]; 3 mg,−0.0390
same,"ReHo-rPPC-Prec, Change from Baseline EOT, Median",[1]; 3 mg,−0.0081
same,"fALFF-IIPL, Change from Baseline EOT, Mean",[1]; 3 mg,−0.0296
same,"fALFF-IIPL, Change from Baseline EOT, Median",[1]; 3 mg,−0.0311
same,"fALFF-IPPC-PreC, Change from Baseline EOT, Mean",[1]; 3 mg,0.0121
same,"fALFF-IPPC-PreC, Change from Baseline EOT, Median",[1]; 3 mg,0.0019
same,"fALFF-rIPL, Change from Baseline EOT, Mean",[1]; 3 mg,−0.0342
same,"fALFF-rIPL, Change from Baseline EOT, Median",[1]; 3 mg,−0.0327
same,"fALFF-rPPC-PreC, Change from Baseline EOT, Mean",[1]; 3 mg,−0.0080
same,"fALFF-rPPC-PreC, Change from Baseline EOT, Median",[1]; 3 mg,−0.0229
same,"ALFF-IIPL, Change from Baseline EOT, Mean",[1]; 10 mg,0.0104
same,"ALFF-IIPL, Change from Baseline EOT, Median",[1]; 10 mg,0.0273
same,"ALFF-rIPL, Change from Baseline EOT, Mean",[1]; 10 mg,−0.0276
same,"ALFF-rIPL, Change from Baseline EOT, Median",[1]; 10 mg,−0.0278
same,"ReHo-IIPL, Change from Baseline EOT, Mean",[1]; 10 mg,0.0147
same,"ReHo-IIPL, Change from Baseline EOT, Median",[1]; 10 mg,−0.0201
same,"ReHo-IPPC-PreC, Change from Baseline EOT, Mean",[1]; 10 mg,0.0237
same,"ReHo-IPPC-PreC, Change from Baseline EOT, Median",[1]; 10 mg,0.0523
same,"ReHo-rIPL, Change from Baseline EOT, Mean",[1]; 10 mg,0.0147
same,"ReHo-rIPL, Change from Baseline EOT, Median",[1]; 10 mg,−0.0201
same,"ReHo-rPPC-Prec, Change from Baseline EOT, Mean",[1]; 10 mg,−0.0663
same,"ReHo-rPPC-Prec, Change from Baseline EOT, Median",[1]; 10 mg,0.0153
same,"fALFF-IIPL, Change from Baseline EOT, Mean",[1]; 10 mg,0.0164
same,"fALFF-IIPL, Change from Baseline EOT, Median",[1]; 10 mg,0.0097
same,"fALFF-IPPC-PreC, Change from Baseline EOT, Mean",[1]; 10 mg,0.0068
same,"fALFF-IPPC-PreC, Change from Baseline EOT, Median",[1]; 10 mg,−0.0068
same,"fALFF-rIPL, Change from Baseline EOT, Mean",[1]; 10 mg,0.0061
same,"fALFF-rIPL, Change from Baseline EOT, Median",[1]; 10 mg,0.0096
same,"fALFF-rPPC-PreC, Change from Baseline EOT, Mean",[1]; 10 mg,0.0084
same,"fALFF-rPPC-PreC, Change from Baseline EOT, Median",[1]; 10 mg,−0.0028
same,"ALFF-IIPL, Change from Baseline EOT, Mean",[1]; 30 mg,−0.0102
same,"ALFF-IIPL, Change from Baseline EOT, Median",[1]; 30 mg,−0.0031
same,"ALFF-rIPL, Change from Baseline EOT, Mean",[1]; 30 mg,0.0346
same,"ALFF-rIPL, Change from Baseline EOT, Median",[1]; 30 mg,0.0332
same,"ReHo-IIPL, Change from Baseline EOT, Mean",[1]; 30 mg,−0.0249
same,"ReHo-IIPL, Change from Baseline EOT, Median",[1]; 30 mg,−0.0135
same,"ReHo-IPPC-PreC, Change from Baseline EOT, Mean",[1]; 30 mg,−0.0369
same,"ReHo-IPPC-PreC, Change from Baseline EOT, Median",[1]; 30 mg,−0.0398
same,"ReHo-rIPL, Change from Baseline EOT, Mean",[1]; 30 mg,−0.0249
same,"ReHo-rIPL, Change from Baseline EOT, Median",[1]; 30 mg,−0.0135
same,"ReHo-rPPC-Prec, Change from Baseline EOT, Mean",[1]; 30 mg,−0.0895
same,"ReHo-rPPC-Prec, Change from Baseline EOT, Median",[1]; 30 mg,−0.1176
same,"fALFF-IIPL, Change from Baseline EOT, Mean",[1]; 30 mg,−0.0107
same,"fALFF-IIPL, Change from Baseline EOT, Median",[1]; 30 mg,−0.0034
same,"fALFF-IPPC-PreC, Change from Baseline EOT, Mean",[1]; 30 mg,−0.0132
same,"fALFF-IPPC-PreC, Change from Baseline EOT, Median",[1]; 30 mg,−0.0141
same,"fALFF-rIPL, Change from Baseline EOT, Mean",[1]; 30 mg,0.0023
same,"fALFF-rIPL, Change from Baseline EOT, Median",[1]; 30 mg,0.0001
same,"fALFF-rPPC-PreC, Change from Baseline EOT, Mean",[1]; 30 mg,−0.0007
same,"fALFF-rPPC-PreC, Change from Baseline EOT, Median",[1]; 30 mg,−0.0133
same,"ALFF-IIPL, Change from Baseline EOT, Mean",[1]; 90 mg,−0.0401
same,"ALFF-IIPL, Change from Baseline EOT, Median",[1]; 90 mg,−0.0560
same,"ALFF-rIPL, Change from Baseline EOT, Mean",[1]; 90 mg,−0.1089
same,"ALFF-rIPL, Change from Baseline EOT, Median",[1]; 90 mg,−0.0671
same,"ReHo-IIPL, Change from Baseline EOT, Mean",[1]; 90 mg,−0.0062
same,"ReHo-IIPL, Change from Baseline EOT, Median",[1]; 90 mg,−0.0121
same,"ReHo-IPPC-PreC, Change from Baseline EOT, Mean",[1]; 90 mg,0.0194
same,"ReHo-IPPC-PreC, Change from Baseline EOT, Median",[1]; 90 mg,0.0566
same,"ReHo-rIPL, Change from Baseline EOT, Mean",[1]; 90 mg,−0.0062
same,"ReHo-rIPL, Change from Baseline EOT, Median",[1]; 90 mg,−0.0121
same,"ReHo-rPPC-Prec, Change from Baseline EOT, Mean",[1]; 90 mg,−0.0041
same,"ReHo-rPPC-Prec, Change from Baseline EOT, Median",[1]; 90 mg,0.0177
same,"fALFF-IIPL, Change from Baseline EOT, Mean",[1]; 90 mg,−0.0350
same,"fALFF-IIPL, Change from Baseline EOT, Median",[1]; 90 mg,−0.0211
same,"fALFF-IPPC-PreC, Change from Baseline EOT, Mean",[1]; 90 mg,−0.0167
same,"fALFF-IPPC-PreC, Change from Baseline EOT, Median",[1]; 90 mg,−0.0166
same,"fALFF-rIPL, Change from Baseline EOT, Mean",[1]; 90 mg,−0.0395
same,"fALFF-rIPL, Change from Baseline EOT, Median",[1]; 90 mg,−0.0313
same,"fALFF-rPPC-PreC, Change from Baseline EOT, Mean",[1]; 90 mg,−0.0118
same,"fALFF-rPPC-PreC, Change from Baseline EOT, Median",[1]; 90 mg,0.0039
